# Results as given in ChEMBL document CHEMBL1201862, “PubChem BioAssay data set” (2004).
# Active and inactive are the calls of the source.
# Legend:
# [1] = biological target: Kallikrein-7 (Homo sapiens, UniProt P49862); assay: Fluorescence Intensity-based biochemical primary high throughput dose response assay to identify activators of kallikrein-7 (K7) zymogen.
# [2] = inhibitors of EBV LMP1 NF-kappaB signaling – cell-based, luciferase reporter, luminescence, dry powder, set 2, dose response (AID 624376); assay type: functional
# [3] = biological target: Galanin receptor type 3 (Homo sapiens, UniProt O60755); assay: Fluorescence-based cell-based primary high throughput dose response assay to identify antagonists of the Galanin Receptor 3 (GalR3).; assay type: functional
# [4] = cells; assay type: functional, cell-based; settings: HEK-CNG
# [5] = biological target: Cytochrome P450 2D6 (Homo sapiens, UniProt P10635);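 also: CYP2D6 member of a cytochrome P450 panel assay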
# [6] = biological target: Cytochrome P450 2C9 (Homo sapiens, UniProt P11712)
# [7] = activation of miR-122 Renilla sensor silencing – cell-based, Huh7 psiCHECK-miR122, Renilla luciferase, cherry-picked, dose response (AID 651956); assay type: functional;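 also: huh7 hepatoma cells stably carrying a psiCHECK-2 miR-122 sensor plasmid; renilla luciferase signal reporting endogenous miR-122 activity after 48 h compound exposure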
# [8] = biological target: Paired box protein Pax-8 (Homo sapiens, UniProt Q06710); assay: PAX8 transcriptional activity inhibition in RMG-I – RMG-I cells, luciferase, cherry-pick, dose response (AID 687027); assay type: functional, cell-based;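 also: luciferase reporter driven by Pax8 target thyroperoxidase promoter measured by SteadyGlo luminescence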
# [9] = A2780 cell killing – plate reader, dry powder samples, cytotoxicity control, dose response (AID 743046); assay type: functional, cell-based
# [10] = OVCAR-3 cell viability loss – plate reader, dry powder samples, PAX8 inhibitor project, dose response (AID 743044); assay type: functional, cell-based
# [11] = general cell-killing toxicity readout – plate reader, dry powder samples, cytotoxicity control for PAX8 inhibitor project, dose response (AID 743021); assay type: functional, cell-based
# [12] = viability loss in HEK293T cells – cell-based, cherry-picks, cytotoxicity control for HIV Vif inhibitor project, dose response (AID 652208); assay type: functional
# [13] = biological target: Nuclear receptor subfamily 5 group A member 2 (Homo sapiens, UniProt O00482); assay type: functional, cell-based;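 also: HEK293T cells transfected with LRH-1 and a StAR promoter luciferase reporter; potency for inhibitors that lower LRH-1 driven reporter light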
# [14] = biological target: Steroidogenic factor 1 (Homo sapiens, UniProt Q13285); assay: Counterscreen for inverse agonists of the liver receptor homolog-1 (LRH-1; NR5A2): Luminescence-based cell-based high throughput dose response assay to identify inverse agonists of the Steroidogenic Factor 1 Nuclear Receptor (SF1; NR5A1).; assay type: functional
# [15] = nonselective StAR promoter luciferase inhibitors – cell-based, luminescence, luciferase reporter, counter-screen for LRH-1 inverse agonist project, dose response (AID 651969); assay type: functional
# [16] = biological target: T1, Hexokinase HKDC1 (Homo sapiens, UniProt Q2TB90); assay: activation of HKDC1 glucose phosphorylation – biochemical, W721R variant, dose response (AID 504730); assay type: functional
# T1 sequence (Q2TB90 whole entry): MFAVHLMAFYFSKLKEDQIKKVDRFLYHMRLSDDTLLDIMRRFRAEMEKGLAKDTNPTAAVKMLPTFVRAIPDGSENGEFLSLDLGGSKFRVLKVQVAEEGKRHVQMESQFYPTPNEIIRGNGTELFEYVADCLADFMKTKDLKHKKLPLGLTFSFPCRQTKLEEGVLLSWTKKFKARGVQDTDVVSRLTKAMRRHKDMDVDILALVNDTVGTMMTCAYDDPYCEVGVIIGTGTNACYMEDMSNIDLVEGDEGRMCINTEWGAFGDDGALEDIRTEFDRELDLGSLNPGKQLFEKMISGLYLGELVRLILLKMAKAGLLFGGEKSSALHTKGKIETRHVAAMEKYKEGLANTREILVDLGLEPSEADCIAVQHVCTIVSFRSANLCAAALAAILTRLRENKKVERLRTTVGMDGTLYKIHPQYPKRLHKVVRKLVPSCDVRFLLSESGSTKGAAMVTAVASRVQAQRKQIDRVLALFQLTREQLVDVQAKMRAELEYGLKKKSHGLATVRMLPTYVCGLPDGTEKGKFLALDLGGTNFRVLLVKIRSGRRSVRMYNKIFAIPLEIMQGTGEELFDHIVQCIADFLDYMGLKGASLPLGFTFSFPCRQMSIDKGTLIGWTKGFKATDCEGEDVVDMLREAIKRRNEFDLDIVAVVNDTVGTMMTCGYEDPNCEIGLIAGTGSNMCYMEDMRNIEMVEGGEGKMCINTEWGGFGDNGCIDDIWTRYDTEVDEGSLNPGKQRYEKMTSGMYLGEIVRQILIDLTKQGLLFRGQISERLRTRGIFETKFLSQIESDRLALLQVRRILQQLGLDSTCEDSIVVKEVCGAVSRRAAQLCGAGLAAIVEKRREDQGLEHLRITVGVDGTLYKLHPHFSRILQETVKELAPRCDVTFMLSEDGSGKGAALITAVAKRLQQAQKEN
# [17] = biological target: T2, Hexokinase-1 (Homo sapiens, UniProt P19367); assay: HK1 enzyme activation by HKDC1 hits – biochemical, selectivity assay for HKDC1 activator project, dose response (AID 504762); assay type: functional
# T2 sequence (P19367 whole entry): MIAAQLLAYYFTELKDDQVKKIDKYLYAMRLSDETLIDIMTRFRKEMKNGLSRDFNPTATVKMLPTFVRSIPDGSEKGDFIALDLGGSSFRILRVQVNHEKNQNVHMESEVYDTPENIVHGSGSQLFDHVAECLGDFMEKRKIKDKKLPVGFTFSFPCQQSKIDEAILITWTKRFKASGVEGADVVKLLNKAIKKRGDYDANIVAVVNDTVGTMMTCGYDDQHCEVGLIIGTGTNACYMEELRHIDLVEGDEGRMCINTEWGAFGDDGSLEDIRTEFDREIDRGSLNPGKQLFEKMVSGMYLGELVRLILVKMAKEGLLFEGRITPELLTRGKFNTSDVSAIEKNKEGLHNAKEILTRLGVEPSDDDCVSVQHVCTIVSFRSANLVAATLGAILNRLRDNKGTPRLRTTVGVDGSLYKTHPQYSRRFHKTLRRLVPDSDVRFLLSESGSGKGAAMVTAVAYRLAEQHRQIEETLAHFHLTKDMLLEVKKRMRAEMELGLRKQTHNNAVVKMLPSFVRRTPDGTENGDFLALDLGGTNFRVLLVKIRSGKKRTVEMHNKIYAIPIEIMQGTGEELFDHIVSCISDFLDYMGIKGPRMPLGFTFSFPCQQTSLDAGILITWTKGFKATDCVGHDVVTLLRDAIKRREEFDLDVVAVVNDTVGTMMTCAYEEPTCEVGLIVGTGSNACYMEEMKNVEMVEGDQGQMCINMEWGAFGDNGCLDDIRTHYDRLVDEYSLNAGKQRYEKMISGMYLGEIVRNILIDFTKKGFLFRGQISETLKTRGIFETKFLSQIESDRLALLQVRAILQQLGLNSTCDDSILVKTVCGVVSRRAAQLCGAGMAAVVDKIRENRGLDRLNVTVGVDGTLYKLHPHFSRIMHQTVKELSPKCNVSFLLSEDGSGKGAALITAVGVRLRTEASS
# [18] = biological target: Tyrosine-protein phosphatase non-receptor type 11 (Homo sapiens, UniProt Q06124); assay: PTPN11 enzyme inhibitors – biochemical, selectivity assay for STEP inhibitor project, dose response (AID 602367); assay type: functional; settings: read-out: IC50_Mean
# [19] = biological target: Tyrosine-protein phosphatase non-receptor type 5 (Homo sapiens, UniProt P54829); assay: PTPN5 enzyme inhibition – biochemical, fluorescence intensity, uHTS hits, confirmation (AID 602372); assay type: functional; settings: read-out: IC50_Mean
# [20] = biological target: Dual specificity protein phosphatase 3 (Homo sapiens, UniProt P51452); assay: VHR phosphatase inhibition, dose response, selectivity assay for STEP inhibitor project, biochemical (AID 602374); assay type: functional; settings: read-out: IC50_Mean
# Dual specificity protein phosphatase 3, sequence (P51452 whole entry): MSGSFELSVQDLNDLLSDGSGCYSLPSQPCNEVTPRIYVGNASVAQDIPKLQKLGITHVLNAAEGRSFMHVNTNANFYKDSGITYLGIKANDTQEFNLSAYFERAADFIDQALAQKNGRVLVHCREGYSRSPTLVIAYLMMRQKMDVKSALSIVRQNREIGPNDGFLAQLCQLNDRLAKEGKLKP
# Tyrosine-protein phosphatase non-receptor type 5, sequence (P54829 whole entry): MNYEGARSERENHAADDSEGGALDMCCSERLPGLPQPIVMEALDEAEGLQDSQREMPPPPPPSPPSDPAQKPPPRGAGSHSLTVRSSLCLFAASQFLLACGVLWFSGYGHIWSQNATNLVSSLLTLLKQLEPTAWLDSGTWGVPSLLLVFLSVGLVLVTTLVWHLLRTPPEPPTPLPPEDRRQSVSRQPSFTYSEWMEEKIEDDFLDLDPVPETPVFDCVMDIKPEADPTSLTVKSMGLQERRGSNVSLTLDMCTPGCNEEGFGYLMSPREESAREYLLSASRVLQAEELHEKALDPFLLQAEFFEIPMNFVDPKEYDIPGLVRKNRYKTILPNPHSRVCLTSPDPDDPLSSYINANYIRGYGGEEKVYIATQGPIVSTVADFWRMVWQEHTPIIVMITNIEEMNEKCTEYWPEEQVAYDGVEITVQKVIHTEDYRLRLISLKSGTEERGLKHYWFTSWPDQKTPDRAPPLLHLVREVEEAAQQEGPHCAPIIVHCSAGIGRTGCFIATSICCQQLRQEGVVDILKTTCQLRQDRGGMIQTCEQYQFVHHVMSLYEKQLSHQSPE
# Galanin receptor type 3, sequence (O60755 whole entry): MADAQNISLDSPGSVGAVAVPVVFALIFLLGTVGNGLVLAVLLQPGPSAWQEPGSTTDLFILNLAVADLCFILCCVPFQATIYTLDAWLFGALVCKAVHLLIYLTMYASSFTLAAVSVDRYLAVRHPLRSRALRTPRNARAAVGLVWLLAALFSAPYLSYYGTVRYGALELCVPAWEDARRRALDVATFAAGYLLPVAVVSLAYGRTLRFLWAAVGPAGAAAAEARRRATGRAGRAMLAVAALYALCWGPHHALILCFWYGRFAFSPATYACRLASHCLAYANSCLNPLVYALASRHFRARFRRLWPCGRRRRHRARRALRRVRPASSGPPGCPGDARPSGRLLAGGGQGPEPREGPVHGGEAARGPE
# Tyrosine-protein phosphatase non-receptor type 11, sequence (Q06124 whole entry): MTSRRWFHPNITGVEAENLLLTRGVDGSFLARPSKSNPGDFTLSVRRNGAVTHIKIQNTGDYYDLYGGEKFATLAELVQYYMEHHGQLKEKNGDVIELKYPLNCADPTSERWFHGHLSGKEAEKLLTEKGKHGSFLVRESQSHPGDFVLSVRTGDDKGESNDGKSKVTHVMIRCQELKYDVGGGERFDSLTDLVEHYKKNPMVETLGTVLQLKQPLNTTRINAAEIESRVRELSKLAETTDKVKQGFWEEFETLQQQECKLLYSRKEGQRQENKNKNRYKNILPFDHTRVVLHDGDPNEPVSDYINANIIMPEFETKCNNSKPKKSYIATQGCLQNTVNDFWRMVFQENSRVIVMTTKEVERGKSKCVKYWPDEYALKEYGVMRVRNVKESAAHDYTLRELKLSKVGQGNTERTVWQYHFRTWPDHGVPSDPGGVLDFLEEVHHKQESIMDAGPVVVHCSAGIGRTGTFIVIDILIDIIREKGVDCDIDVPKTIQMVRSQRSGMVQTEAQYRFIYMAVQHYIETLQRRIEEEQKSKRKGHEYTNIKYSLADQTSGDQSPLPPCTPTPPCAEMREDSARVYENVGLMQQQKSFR
# Steroidogenic factor 1, sequence (Q13285 whole entry): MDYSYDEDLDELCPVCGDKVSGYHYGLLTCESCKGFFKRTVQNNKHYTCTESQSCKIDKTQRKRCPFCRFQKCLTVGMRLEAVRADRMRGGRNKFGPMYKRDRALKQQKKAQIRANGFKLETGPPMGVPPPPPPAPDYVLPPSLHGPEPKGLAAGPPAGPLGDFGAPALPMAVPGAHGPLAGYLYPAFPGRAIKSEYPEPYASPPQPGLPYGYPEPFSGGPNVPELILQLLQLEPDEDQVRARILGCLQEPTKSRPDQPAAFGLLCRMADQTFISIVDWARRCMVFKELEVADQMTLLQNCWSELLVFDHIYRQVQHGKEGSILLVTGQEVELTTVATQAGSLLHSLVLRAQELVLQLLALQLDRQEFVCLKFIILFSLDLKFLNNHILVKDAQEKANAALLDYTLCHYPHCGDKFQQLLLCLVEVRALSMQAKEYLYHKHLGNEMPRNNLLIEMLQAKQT
# Kallikrein-7, sequence (P49862 whole entry): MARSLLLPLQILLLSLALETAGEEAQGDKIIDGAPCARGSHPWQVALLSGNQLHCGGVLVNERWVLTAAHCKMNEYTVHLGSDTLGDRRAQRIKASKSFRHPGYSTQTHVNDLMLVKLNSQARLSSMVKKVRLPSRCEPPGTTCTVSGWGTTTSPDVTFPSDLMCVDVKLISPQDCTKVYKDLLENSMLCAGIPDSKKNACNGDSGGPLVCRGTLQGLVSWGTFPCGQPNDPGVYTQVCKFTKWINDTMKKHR
# Paired box protein Pax-8, sequence (Q06710 whole entry): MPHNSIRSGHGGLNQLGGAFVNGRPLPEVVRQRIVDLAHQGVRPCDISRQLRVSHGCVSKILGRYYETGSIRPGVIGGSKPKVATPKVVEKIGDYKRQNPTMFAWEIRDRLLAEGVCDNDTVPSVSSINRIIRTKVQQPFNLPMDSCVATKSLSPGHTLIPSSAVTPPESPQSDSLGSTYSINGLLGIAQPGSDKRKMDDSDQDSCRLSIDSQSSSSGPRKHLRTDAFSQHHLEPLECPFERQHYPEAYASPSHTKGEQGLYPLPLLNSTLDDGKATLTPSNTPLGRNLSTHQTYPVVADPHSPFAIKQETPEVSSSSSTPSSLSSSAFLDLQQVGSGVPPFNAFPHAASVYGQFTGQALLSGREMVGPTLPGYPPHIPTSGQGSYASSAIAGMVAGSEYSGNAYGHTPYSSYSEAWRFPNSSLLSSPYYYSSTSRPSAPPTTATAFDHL
# Nuclear receptor subfamily 5 group A member 2, sequence (O00482 whole entry): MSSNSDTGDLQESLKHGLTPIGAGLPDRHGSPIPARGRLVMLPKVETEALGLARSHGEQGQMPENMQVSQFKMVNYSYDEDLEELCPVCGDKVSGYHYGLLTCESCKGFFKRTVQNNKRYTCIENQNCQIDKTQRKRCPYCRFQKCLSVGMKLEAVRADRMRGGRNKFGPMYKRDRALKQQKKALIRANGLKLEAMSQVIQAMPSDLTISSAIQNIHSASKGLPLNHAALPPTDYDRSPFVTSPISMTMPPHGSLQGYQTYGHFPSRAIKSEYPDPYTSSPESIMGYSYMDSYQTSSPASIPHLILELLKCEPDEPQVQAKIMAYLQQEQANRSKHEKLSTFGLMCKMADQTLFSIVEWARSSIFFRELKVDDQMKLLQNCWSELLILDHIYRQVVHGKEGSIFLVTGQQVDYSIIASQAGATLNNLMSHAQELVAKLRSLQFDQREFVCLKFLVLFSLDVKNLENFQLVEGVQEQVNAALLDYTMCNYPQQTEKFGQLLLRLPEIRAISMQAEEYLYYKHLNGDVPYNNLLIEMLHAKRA
# Cytochrome P450 2C9, sequence (P11712 whole entry): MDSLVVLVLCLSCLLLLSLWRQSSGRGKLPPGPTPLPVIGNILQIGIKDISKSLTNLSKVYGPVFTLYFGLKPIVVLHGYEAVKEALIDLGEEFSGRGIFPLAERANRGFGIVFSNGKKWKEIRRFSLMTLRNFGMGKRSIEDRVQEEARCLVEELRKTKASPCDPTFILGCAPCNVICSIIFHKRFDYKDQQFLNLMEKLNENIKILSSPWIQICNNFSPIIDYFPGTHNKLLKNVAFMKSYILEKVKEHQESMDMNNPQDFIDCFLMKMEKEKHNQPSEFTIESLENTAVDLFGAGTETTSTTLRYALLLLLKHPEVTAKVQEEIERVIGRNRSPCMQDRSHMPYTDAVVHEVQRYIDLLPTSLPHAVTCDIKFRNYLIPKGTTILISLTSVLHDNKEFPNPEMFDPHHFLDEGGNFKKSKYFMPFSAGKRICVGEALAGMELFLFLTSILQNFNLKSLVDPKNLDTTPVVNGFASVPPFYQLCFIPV
# Cytochrome P450 2D6, sequence (P10635 whole entry): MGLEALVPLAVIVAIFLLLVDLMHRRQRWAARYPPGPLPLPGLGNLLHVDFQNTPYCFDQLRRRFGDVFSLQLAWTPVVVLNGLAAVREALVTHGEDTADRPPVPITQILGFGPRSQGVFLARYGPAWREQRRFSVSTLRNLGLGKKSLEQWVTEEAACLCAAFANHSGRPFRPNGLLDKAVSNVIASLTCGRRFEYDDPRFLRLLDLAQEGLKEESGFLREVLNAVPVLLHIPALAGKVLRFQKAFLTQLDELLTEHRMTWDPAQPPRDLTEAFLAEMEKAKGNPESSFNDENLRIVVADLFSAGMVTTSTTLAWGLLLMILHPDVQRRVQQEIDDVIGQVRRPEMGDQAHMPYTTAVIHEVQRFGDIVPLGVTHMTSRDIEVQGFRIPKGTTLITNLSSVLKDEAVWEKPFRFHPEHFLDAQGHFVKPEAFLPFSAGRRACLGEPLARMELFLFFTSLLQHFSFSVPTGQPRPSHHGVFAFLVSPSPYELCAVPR
compound,measurement,setting,value
O=C(NCCCN1CCCC1=O)c1cc2nc(-c3ccco3)cc(C(F)(F)F)n2n1,EC50,[1],> 69.5 µM (inactive)
COc1cccc(S(=O)(=O)N(C)C[C@H]2Oc3cc(C4=CCCCC4)ccc3S(=O)(=O)N([C@@H](C)CO)C[C@@H]2C)c1,AbsAC35,[2],64.1 µM
Cc1nc2sc(C#N)c(N)c2c2c1CCCC2,IC50,[3],> 29.9 µM (inactive)
same,EC50,[4],> 29.9 µM (inactive)
same,AC50,[5],0.398 µM (inconclusive)
same,AC50,[6],inconclusive
C[C@@H]1CN([C@@H](C)CO)S(=O)(=O)c2ccc(-c3ccccc3)cc2O[C@@H]1CN(C)C(=O)c1ccc2c(c1)OCO2,AC50,[7],16.3 µM (active)
C[C@H](CO)N1C[C@H](C)[C@H](CN(C)C(=O)[C@H](Cc2ccccc2)N(C)C)OCc2ccccc2-c2c(n(C)c3ccccc23)C1=O,AC50,[8],16.4 µM (active)
same,AC50,[9],12.6 µM (active)
same,AC50,[10],45.4 µM (active)
same,AC50,[11],36.2 µM (active)
COC(=O)c1ccc2c(=O)n(Cc3ccco3)c(SCC(=O)Nc3cc(C)on3)nc2c1,AC50,[12],35.7 µM (active)
COc1ccc(Nc2nc(NCCN3CCOCC3)nc(Nc3ccc(OC)cc3)n2)cc1,IC50,[13],5.3 µM (active)
same,IC50,[14],4.32 µM (active)
same,IC50,[15],12 µM (inactive)
CC(=NNC(=S)N1CC2CCC(CC2)C1)c1cccc(C)n1,EC50,[16],> 80 µM (inactive)
same,EC50,[17],> 80 µM (inactive)
same,IC50,[18],6.06 µM (active)
same,IC50,[19],> 80 µM (inactive)
same,IC50,[20],7.77 µM (active)
